Results on eleven compounds are retold here after PubChem BioAssay AID328 (DTP/NCI, 2004).

Where “and” joins values, the source holds several entries; their conditions need not be identical. Equal entries are not always repeated. Inconclusive results and toxic doses are left out.

The test system of this test is BDF1 mice, P388 leukemia ip, median survival T/C. The experiment in a line: NCI In Vivo Anticancer Drug Screen. Data for tumor model P388 Leukemia (intraperitoneal) in B6D2F1 (BDF1) mice. The conditions noted are these: endpoint: median survival time, higher = longer survival. A digest of the protocol:
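Each value expresses how treatment altered survival: treated-mouse outcome over vehicle-mouse outcome, both groups bearing the transplanted tumour.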

[1] abbreviates: dose: 12.5 mg/kg/injection, schedule: Q01DX009 (ip), vehicle: saline with Tween-80.
Setting [2] is: dose: 25.0 mg/kg/injection, schedule: Q01DX009 (ip), vehicle: saline with Tween-80.
Setting [3] is: dose: 50.0 mg/kg/injection, schedule: Q01DX009 (ip), vehicle: saline with Tween-80.
Where [4] appears, read: dose: 100.0 mg/kg/injection, schedule: Q01DX009 (ip), vehicle: saline with Tween-80.
The mark [5] stands for this setting: dose: 200.0 mg/kg/injection, schedule: Q01DX009 (ip), vehicle: saline with Tween-80.
The mark [6] stands for this setting: dose: 400.0 mg/kg/injection, schedule: Q01DX009 (ip), vehicle: saline with Tween-80.

As for `CN(C)N=Nc1cn(C2OC(CO)C(O)C2O)c(=O)[nH]c1=O` (stereo not given), the T/C by setting is: (dose: 9.0 mg/kg/injection, schedule: Q01DX009 (ip), vehicle: saline) 115 % of control; (dose: 18.0 mg/kg/injection, schedule: Q01DX009 (ip), vehicle: saline) 110 % of control; (dose: 25.0 mg/kg/injection, schedule: Q01DX009 (ip), vehicle: saline) 100 % of control; (dose: 37.5 mg/kg/injection, schedule: Q01DX009 (ip), vehicle: saline) 300 % of control and 120 % of control; (dose: 50.0 mg/kg/injection, schedule: Q01DX009 (ip), vehicle: saline) 120 % of control; (dose: 75.0 mg/kg/injection, schedule: Q01DX009 (ip), vehicle: saline) 300 % of control and 150 % of control. For the same compound, the T/C is 300 % of control and 180 % of control (dose: 150.0 mg/kg/injection, schedule: Q01DX009 (ip), vehicle: saline); 150 % of control (dose: 400.0 mg/kg/injection, schedule: Q01DX009 (ip), vehicle: saline).
On to `CCCCOC1OCN(c2ccc(OC)cc2)CC1(C)C` (stereo not given), for which the T/C is 114 % of control (dose: 50.0 mg/kg/injection, schedule: Q01DX009 (ip), vehicle: saline + alcohol); 107 % of control (dose: 100.0 mg/kg/injection, schedule: Q01DX009 (ip), vehicle: saline + alcohol); 118 % of control (dose: 200.0 mg/kg/injection, schedule: Q01DX009 (ip), vehicle: saline + alcohol).
As for `O=[N+]([O-])c1cccc2c1ccc[n+]2Cc1ccccc1`, the T/C was 112 % of control under setting [1], 115 % of control under setting [2] and 122 % of control under setting [3].
On to `CN(C(=S)SSC(=S)N(C)c1ccccc1)c1ccccc1`, for which the T/C under setting [1] was 98 % of control; the T/C under setting [2] is 99 % of control; the T/C under setting [3] is 100 % of control; the T/C under setting [4] was 92 % of control; the T/C (dose: 200.0 mg/kg/injection, schedule: Q01DX001 (ip), vehicle: Klucel (hydroxypropylcellulose) (HPC)) was 91 % of control; the T/C (dose: 400.0 mg/kg/injection, schedule: Q01DX001 (ip), vehicle: Klucel (hydroxypropylcellulose) (HPC)) is 95 % of control.
Regarding `O=C(O)CCCCCCCCC(=O)O`, the T/C under setting [3] is 98 % of control, the T/C under setting [4] was 98 % of control, the T/C under setting [5] is 94 % of control and the T/C under setting [6] is 93 % of control.
Turning to `COC(C(OC)N1CCOCC1)N1CCOCC1` (stereo not given), the T/C was 104 % of control (dose: 50.0 mg/kg/injection, schedule: Q04DX003 (ip), vehicle: saline with Tween-80); 91 % of control under setting [4]; 95 % of control (dose: 100.0 mg/kg/injection, schedule: Q04DX003 (ip), vehicle: saline with Tween-80); 95 % of control under setting [5]; 100 % of control (dose: 200.0 mg/kg/injection, schedule: Q04DX003 (ip), vehicle: saline with Tween-80); 95 % of control under setting [6]. In addition, the T/C (dose: 400.0 mg/kg/injection, schedule: Q04DX003 (ip), vehicle: saline with Tween-80) is 100 % of control.
As for `COc1cc2c(cc1OC)-c1cc3cc(OC)c(OC)cc3c(CCC(=O)O)[n+]1CC2`, the T/C by setting is: (dose: 75.0 mg/kg/injection, schedule: Q01DX009 (ip), vehicle: Klucel (hydroxypropylcellulose) (HPC)) 101 % of control; (dose: 150.0 mg/kg/injection, schedule: Q01DX009 (ip), vehicle: Klucel (hydroxypropylcellulose) (HPC)) 101 % of control.
Turning to `C[n+]1cccc2c3ccccc3c(-c3ccccc3)cc21`, the T/C (dose: 0.39 mg/kg/injection, schedule: Q01DX009 (ip), vehicle: water) is 101 % of control; the T/C (dose: 0.78 mg/kg/injection, schedule: Q01DX009 (ip), vehicle: water) is 90 % of control and 106 % of control; the T/C (dose: 1.56 mg/kg/injection, schedule: Q01DX009 (ip), vehicle: water) is 89 % of control and 94 % of control and 103 % of control; the T/C (dose: 3.12 mg/kg/injection, schedule: Q01DX009 (ip), vehicle: water) is 87 % of control and 93 % of control and 116 % of control; the T/C (dose: 6.25 mg/kg/injection, schedule: Q01DX009 (ip), vehicle: water) is 98 % of control and 104 % of control and 122 % of control; the T/C (dose: 6.25 mg/kg/injection, schedule: Q04DX003 (ip), vehicle: water) is 90 % of control. Also, the T/C by setting is: (dose: 12.5 mg/kg/injection, schedule: Q01DX009 (ip), vehicle: water) 100 % of control and 111 % of control; (dose: 12.5 mg/kg/injection, schedule: Q04DX003 (ip), vehicle: water) 103 % of control; (dose: 25.0 mg/kg/injection, schedule: Q04DX003 (ip), vehicle: water) 112 % of control; (dose: 50.0 mg/kg/injection, schedule: Q01DX009 (ip), vehicle: water) 113 % of control.
As to `CCCCCCCCC(=O)CCCCC`, the T/C reads like this: (dose: 100.0 mg/kg/injection, schedule: Q04DX003 (ip), vehicle: saline) 100 % of control; (dose: 200.0 mg/kg/injection, schedule: Q04DX003 (ip), vehicle: saline) 91 % of control; (dose: 400.0 mg/kg/injection, schedule: Q04DX003 (ip), vehicle: saline) 95 % of control.
On to `CC(=O)OC1(C)CC(C)C(=O)C(C(O)CC2CC(=O)NC(=O)C2)C1` (stereo not given), for which the T/C (dose: 0.25 mg/kg/injection, schedule: Q01DX010 (ip), vehicle: water) was 90 % of control; the T/C (dose: 2.16 mg/kg/injection, schedule: Q01DX001 (sc), vehicle: saline) was 100 % of control; the T/C (dose: 3.24 mg/kg/injection, schedule: Q01DX001 (ip), vehicle: saline) was 110 % of control; the T/C (dose: 3.6 mg/kg/injection, schedule: Q01DX001 (sc), vehicle: saline) is 123 % of control; the T/C (dose: 5.4 mg/kg/injection, schedule: Q01DX001 (ip), vehicle: saline) was 116 % of control; the T/C (dose: 5.4 mg/kg/injection, schedule: Q04DX003 (ip), vehicle: saline) is 107 % of control. For the same compound, the T/C reads like this: (dose: 6.0 mg/kg/injection, schedule: Q01DX001 (sc), vehicle: saline) 118 % of control; (dose: 9.0 mg/kg/injection, schedule: Q01DX001 (ip), vehicle: saline) 117 % of control; (dose: 15.0 mg/kg/injection, schedule: Q01DX001 (ip), vehicle: saline) 123 % of control; (dose: 778.0 micrograms/kg/injection, schedule: Q04DX003 (sc), vehicle: saline) 109 % of control; (dose: 1300.0 micrograms/kg/injection, schedule: Q04DX003 (sc), vehicle: saline) 116 % of control; (dose: 2160.0 micrograms/kg/injection, schedule: Q04DX003 (sc), vehicle: saline) 107 % of control. For the setting “dose: 3600.0 micrograms/kg/injection, schedule: Q04DX003 (sc), vehicle: saline”, the T/C is 98 % of control.
`C=CC(=O)O`: the T/C is, setting by setting: (dose: 0.2 mg/kg/injection, schedule: Q01DX001 (ip), vehicle: Klucel (hydroxypropylcellulose) (HPC)) 95 % of control; (dose: 0.41 mg/kg/injection, schedule: Q01DX001 (ip), vehicle: Klucel (hydroxypropylcellulose) (HPC)) 100 % of control; (dose: 0.82 mg/kg/injection, schedule: Q01DX001 (ip), vehicle: Klucel (hydroxypropylcellulose) (HPC)) 104 % of control; (dose: 1.15 mg/kg/injection, schedule: Q04DX003 (ip), vehicle: Klucel (hydroxypropylcellulose) (HPC)) 109 % of control; (dose: 1.65 mg/kg/injection, schedule: Q01DX001 (ip), vehicle: Klucel (hydroxypropylcellulose) (HPC)) 115 % of control; (dose: 2.3 mg/kg/injection, schedule: Q04DX003 (ip), vehicle: Klucel (hydroxypropylcellulose) (HPC)) 100 % of control. Further, the T/C runs as follows: (dose: 3.0 mg/kg/injection, schedule: Q01DX009 (ip), vehicle: saline) 100 % of control; (dose: 3.0 mg/kg/injection, schedule: Q04DX003 (ip), vehicle: saline sonified) 109 % of control; (dose: 4.0 mg/kg/injection, schedule: Q04DX003 (ip), vehicle: saline) 116 % of control; (dose: 4.6 mg/kg/injection, schedule: Q04DX003 (ip), vehicle: Klucel (hydroxypropylcellulose) (HPC)) 100 % of control; (dose: 6.0 mg/kg/injection, schedule: Q01DX009 (ip), vehicle: saline) 100 % of control; (dose: 6.0 mg/kg/injection, schedule: Q04DX003 (ip), vehicle: saline sonified) 172 % of control. For the same compound, the T/C (dose: 6.6 mg/kg/injection, schedule: Q04DX003 (ip), vehicle: Klucel (hydroxypropylcellulose) (HPC)) is 109 % of control; the T/C (dose: 8.0 mg/kg/injection, schedule: Q04DX003 (ip), vehicle: saline) is 122 % of control; the T/C (dose: 12.0 mg/kg/injection, schedule: Q04DX003 (ip), vehicle: saline) is 122 % of control; the T/C (dose: 18.0 mg/kg/injection, schedule: Q04DX003 (ip), vehicle: saline) was 122 % of control.
